Measured values as given in the supplement of paper PMC11208160.

Assay: recombinant UMI read abundance after kanamycin selection (control-corrected) (log10(CPM+1)); higher = more efficient recombination; extreme values may be limits of the assay; sequences stand for … in AGTGCAGAGAAAATCGGCCAGTTTTCTCTGCCTGCAGTCCGCATGCCGTGGGACCCCTTGGGTTCTAACCTGTTGCCTAGATTTATGCAGCGGACTGCCTTTCTCCCAAAGTGATAAACCGG…AGGTTGGTTTCACT; site = the 11-nt donor
Outline: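 Values are reported as log10(CPM+1), obtained by converting sequencing counts to CPM, averaging replicates and scaling by control-derived factors. The counts came from recombinant UMIs amplified by PCR across the donor–target junction. These UMIs came from a pooled Escherichia coli screen of donor and donor-binding-loop pairs for the IS621 bridge recombinase, plated with IPTG (0.07 mM) plus kanamycin or left unselected, in two replicates each.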
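Note: IS621 bridge recombinase in Escherichia coli cells against a fixed T5 target plasmid.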

Sequence	recombinant UMI read abundance (log10)
CACTACTCATGGACCGGTTTTCCCGGTAATCCGTATTTGCC (site CACTTCTCTGG)	0
CACTAGGCATGGACCGGTTTTCCCGGTAATCCGTATTTGGA (site CACTAGGCTTC)	0.727
CACTAGGCATGGACCGGTTTTCCCGGTAATCCGTATTTGGA (site CACTCGGCTTC)	0.0143
CACTAGGCATGGACCGGTTTTCCCGGTAATCCGTATTTGGA (site CACTGGGCTTC)	0.0136
CACTAGGCATGGACCGGTTTTCCCGGTAATCCGTATTTGGA (site CACTTGGCTTC)	0.0198
CACTATGCATGGACCGGTTTTCCCGGTAATCCGTATTTGCG (site CACTATGCTCG)	1.67
CACTCCCCATGGACCGGTTTTCCCGGTAATCCGTATTTGAC (site CACTCCCCTGT)	1.54
CACTCCTCATGGACCGGTTTTCCCGGTAATCCGTATTTGAC (site CACTCCTCTGA)	2.16
CACTCCTCATGGACCGGTTTTCCCGGTAATCCGTATTTGAC (site CACTCCTCTGC)	1.9
CACTCCTCATGGACCGGTTTTCCCGGTAATCCGTATTTGAC (site CACTCCTCTGG)	1.55
CACTCCTCATGGACCGGTTTTCCCGGTAATCCGTATTTGAC (site CACTCCTCTGT)	3.09
CACTCGACATGGACCGGTTTTCCCGGTAATCCGTATTTGGG (site CAATCGACTCC)	0.0326
CACTCGACATGGACCGGTTTTCCCGGTAATCCGTATTTGGG (site CACTCGACTCC)	0.2
CACTCGACATGGACCGGTTTTCCCGGTAATCCGTATTTGGG (site CAGTCGACTCC)	0
CACTCGACATGGACCGGTTTTCCCGGTAATCCGTATTTGGG (site CATTCGACTCC)	0.0164
CACTGCCCATGGACCGGTTTTCCCGGTAATCCGTATTTGTT (site CACAGCCCTAA)	0.0209
CACTGCCCATGGACCGGTTTTCCCGGTAATCCGTATTTGTT (site CACCGCCCTAA)	0.287
CACTGCCCATGGACCGGTTTTCCCGGTAATCCGTATTTGTT (site CACGGCCCTAA)	0.0106
CACTGCCCATGGACCGGTTTTCCCGGTAATCCGTATTTGTT (site CACTGCCCTAA)	0.276

Sequence	recombinant UMI read abundance (log10)
CACTGCTCATGGACCGGTTTTCCCGGTAATCCGTATTTGAA (site CAATGCTCTTT)	0.0153
CACTGCTCATGGACCGGTTTTCCCGGTAATCCGTATTTGAA (site CACTGCTCTTT)	2.09
CACTGCTCATGGACCGGTTTTCCCGGTAATCCGTATTTGAA (site CAGTGCTCTTT)	0.00554
CACTGCTCATGGACCGGTTTTCCCGGTAATCCGTATTTGAA (site CATTGCTCTTT)	0.0128
CACTGGACATGGACCGGTTTTCCCGGTAATCCGTATTTGGT (site CACTGGACTAC)	1.24
CAGAAAACATGGACCGGTTTTCCCGGTAATCCGTATTTGGG (site CAGAAAACTCC)	0.991
CAGACATCATGGACCGGTTTTCCCGGTAATCCGTATTTGCT (site CAGACATCTAG)	2.46
CAGACATCATGGACCGGTTTTCCCGGTAATCCGTATTTGCT (site CCGACATCTAG)	1.06
CAGACATCATGGACCGGTTTTCCCGGTAATCCGTATTTGCT (site CGGACATCTAG)	1.16
CAGACATCATGGACCGGTTTTCCCGGTAATCCGTATTTGCT (site CTGACATCTAG)	1.42
CAGACCGCATGGACCGGTTTTCCCGGTAATCCGTATTTGAT (site CAGACCGCTAT)	2.7
CAGACGCCATGGACCGGTTTTCCCGGTAATCCGTATTTGAC (site CAGACGCCTGT)	1.91
CAGACGGCATGGACCGGTTTTCCCGGTAATCCGTATTTGGG (site CAGACGGCTCC)	0.191
CAGAGAGCATGGACCGGTTTTCCCGGTAATCCGTATTTGTA (site CAGAGAGCTTA)	2.94
CAGCACGCATGGACCGGTTTTCCCGGTAATCCGTATTTGGT (site CAGCACGCTAC)	1.61
CAGCCCACATGGACCGGTTTTCCCGGTAATCCGTATTTGAA (site CAGCCCACTTT)	1.15
CAGCTATCATGGACCGGTTTTCCCGGTAATCCGTATTTGTC (site CAGCTATCTGA)	3.3
CAGGAGTCATGGACCGGTTTTCCCGGTAATCCGTATTTGCC (site CAGGAGTCTGG)	3.4
CAGGAGTCATGGACCGGTTTTCCCGGTAATCCGTATTTGCC (site CCGGAGTCTGG)	0

Sequence	recombinant UMI read abundance (log10)
CAGGAGTCATGGACCGGTTTTCCCGGTAATCCGTATTTGCC (site CGGGAGTCTGG)	0
CAGGAGTCATGGACCGGTTTTCCCGGTAATCCGTATTTGCC (site CTGGAGTCTGG)	1.73
CAGGCAGCATGGACCGGTTTTCCCGGTAATCCGTATTTGCT (site CAAGCAGCTAG)	1.66
CAGGCAGCATGGACCGGTTTTCCCGGTAATCCGTATTTGCT (site CACGCAGCTAG)	0
CAGGCAGCATGGACCGGTTTTCCCGGTAATCCGTATTTGCT (site CAGGCAGCTAG)	1.92
CAGGCAGCATGGACCGGTTTTCCCGGTAATCCGTATTTGCT (site CATGCAGCTAG)	0
CAGGCGACATGGACCGGTTTTCCCGGTAATCCGTATTTGGG (site CAGACGACTCC)	0.0355
CAGGCGACATGGACCGGTTTTCCCGGTAATCCGTATTTGGG (site CAGCCGACTCC)	0.0323
CAGGCGACATGGACCGGTTTTCCCGGTAATCCGTATTTGGG (site CAGGCGACTCC)	0.209
CAGGCGACATGGACCGGTTTTCCCGGTAATCCGTATTTGGG (site CAGTCGACTCC)	0.0086
CAGGGCACATGGACCGGTTTTCCCGGTAATCCGTATTTGGA (site CAGGGCACTTC)	0.471
CAGGTCGCATGGACCGGTTTTCCCGGTAATCCGTATTTGAT (site CAGGTCGCTAT)	2.33
CAGTCAACATGGACCGGTTTTCCCGGTAATCCGTATTTGGG (site CAGTCAACTCC)	0.146
CAGTCAACATGGACCGGTTTTCCCGGTAATCCGTATTTGGG (site CAGTCCACTCC)	0.018
CAGTCAACATGGACCGGTTTTCCCGGTAATCCGTATTTGGG (site CAGTCGACTCC)	0.0226
CAGTCAACATGGACCGGTTTTCCCGGTAATCCGTATTTGGG (site CAGTCTACTCC)	0.0255
CAGTCGACATGGACCGGTTTTCCCGGTAATCCGTATTTGGT (site CAGTCGACTAC)	1.13
CAGTCGACATGGACCGGTTTTCCCGGTAATCCGTATTTGGT (site CAGTCGACTCC)	0.0077
CAGTCGACATGGACCGGTTTTCCCGGTAATCCGTATTTGGT (site CAGTCGACTGC)	1.41
